Experimental data from patent US20250205158A1, “BIODEGRADABLE LIPIDS AND FORMULATIONS FOR DELIVERY OF MRNA” (Massachusetts Institute of Technology, priority 2023, published 2025).

Experiments:
mice = details: for protein expression relative to MD-1: in vitro and in vivo via intramuscular administration (FIGS. 6A-6B)
Experimental: Evaluation of the LNPs via intramuscular injection. The in vivo potency of the ionizable lipids was screened through intramuscular injection of LNPs loaded with mRNA encoding firefly luciferase protein. These LNPs were formulated with a molar composition of (35:16:46.5:2.5) using one of the synthesized ionizable lipids, DOPE as a helper lipid, cholesterol, and DMPE-PEG respectively. mRNA-loaded LNPs were intramuscularly administered in mice at a dose of 1 μg, and expression of luciferase protein was monitored at 6 hours via IVIS bioluminescent imaging (FIG. 3). […] Without wishing to be bound by theory, increased levels of protein expression may enhance the response to vaccination.
In Vitro and In Vivo Screening of AMG Lipid Library. Following synthesis, the mRNA delivery efficacy of the AMG lipids was evaluated through both in vitro and in vivo screens. To screen the first generation of AMG lipids (FIGS. 11B and 11C), firefly luciferase (FLuc) mRNA was encapsulated into LNPs using a previously reported formulation containing ionizable lipid, 1,2-dioleoyl-sn-glycero-3-phosphoethanolamine (DOPE), cholesterol, and 1,2-dimyristoyl-rac-glycero-3-methoxypolyethylene glycol-2000 (DMG-PEG).^19 C2C12 myoblast cells were treated with these LNPs and FLuc expression was evaluated at 24 hrs. (FIG. 16). […] Each of these batches was then injected IM into the quadriceps of mice, and expression was characterized via IVIS imaging (Screen 1, FIG. 11E).
AMG lipids for enhanced mRNA delivery and improved tolerability. A rational design approach was used to further vary the ionizable lipid structure to enhance the mRNA delivery and immunogenicity. […] The lipid tail structure was varied to promote efficient LNP self-assembly while simultaneously promoting endosomal membrane disruption.^18 Monounsaturated (G41-G44) or fully saturated (GC12-GC18) lipid tails were developed. […] Without wishing to be bound by any particular theory, tail length may impact membrane fusion and endosomal escape.^10,11
Next, the headgroup was further modified to further improve delivery. Headgroups play a multifunctional role including enhancing LNP-mRNA interactions, promoting membrane-LNP fusion and endosomal escape which all contribute to mRNA delivery.^23 A series of similar aza-crown ethers were used to further investigate structure-activity relationship and enhance mRNA delivery. These headgroups featured between three and eight nitrogens linked by varying length of methylene chains. Each of these headgroups were reacted with tail G41 to synthesize a next generation of AMG lipids, which were then formulated with FLuc mRNA and evaluated for mRNA delivery following IM administration in mice (FIG. 12B).

[1] = LNP characterization (diameter, PDI, % EE); type: physicochemical; details: LNP formulated with the named lipid; for Diameter (nm) / PDI: dynamic light scattering; for EE %: Ribogreen assay
Experimental: Representative LNP Characterization Data. The diameter, polydispersity index (PDI), and % EE were characterized for various LNPs.
LNP characterization. Concentration of mRNA was determined using a Quant-IT Ribogreen assay. LNPs were diluted in either native TE buffer (ThermoFisher) or denaturing TE buffer+0.5% Triton-X 100 (Millipore-Sigma) to measure the “free” and total mRNA, respectively. 100 μL of these unknowns were added to a black 96-well plate. Separately, standard curves ranging from 2 ng/μL-0 ng/μL were prepared in each of these buffers and 100 μL were added to the same 96-well plate. Finally, Quant-IT Ribogreen reagent (ThermoFisher) was diluted 1:200 in TE buffer and 100 μL of this solution was added to each of the wells. The well plate was then mixed at 400 rpm with a plate shaker for 5 mins. and the fluorescence was read with an excitation/emission of 485/535. LNPs were measured in triplicate and standards were measured in duplicate. RNA concentration in each of the unknown wells was calculated by fitting the standard curves with a linear trendline. Encapsulation efficiency (% EE) was calculated according to: […]
Dynamic light scattering and zeta potential measurements were performed using a Malvern Zetasizer system. The reported diameter and PDI were obtained from the cumulants fit of the autocorrelation function. Zeta potential measurements were performed in 0.1×PBS, pH 7.4 and calculated using the Smoluchowski approximation.

Row | SMILES | Diameter (nm) [1] [nm] | PDI [1] | EE % [1] [%] | fold higher mRNA expression than the next best lipid AMG1010 (mice; Screen 3, IM, 1 μg, imaged 24 hours post injection) [fold] | protein expression relative to MD-1 (mice) | in vivo mRNA delivery of alkene walking tail derivatives (mice; IM, 0.1 μg, 6 hours) | fold drop in transfection versus AMG1541 (mice; IM, analogue without β-amino alcohol) [fold]
1 | CCCCCCCCC=CCCCCCCCC(=O)OCC(O)CN1CCCN(CC(O)COC(=O)CCCCCCCC=CCCCCCCCC)CCN(CC(O)COC(=O)CCCCCCCC=CCCCCCCCC)CCCN(CC(O)COC(=O)CCCCCCCC=CCCCCCCCC)CC1 (mixture of isomers) [AMG104] | – | – | – | ~5 | – | – | –
2 | CCCCCC/C=C\CCCCCCCC(=O)OCC(O)CN1CCCN(CC(O)COC(=O)CCCCCCC/C=C\CCCCCC)CCN(CC(O)COC(=O)CCCCCCC/C=C\CCCCCC)CCCN(CC(O)COC(=O)CCCCCCC/C=C\CCCCCC)CC1 (centres unmarked) [AMG1043] | 79.27 | 0.169 | – | – | – | – | –
3 | CCCCC/C=C\CCCCC(=O)OCC(O)CN1CCN(CC(O)COC(=O)CCCC/C=C\CCCCC)CCN(CC(O)COC(=O)CCCC/C=C\CCCCC)CCN(CC(O)COC(=O)CCCC/C=C\CCCCC)CCN(CC(O)COC(=O)CCCC/C=C\CCCCC)CCN(CC(O)COC(=O)CCCC/C=C\CCCCC)CC1 (centres unmarked) [AMG1547] | 100 | 0.142 | 85.33 | – | superseded or matched MD-1 | – | –
4 | CCCCCC/C=C\CCCCOC(=O)CCN1CCN(CCC(=O)OCCCC/C=C\CCCCCC)CCN(CCC(=O)OCCCC/C=C\CCCCCC)CCN(CCC(=O)OCCCC/C=C\CCCCCC)CCN(CCC(=O)OCCCC/C=C\CCCCCC)CCN(CCC(=O)OCCCC/C=C\CCCCCC)CC1 [AMG1559] | – | – | – | – | – | – | 34

More lines, main results first:

Row | Diameter (nm) [1] [nm] | PDI [1] | EE % [1] [%] | SMILES | fold higher mRNA expression than the next best lipid AMG1010 (mice; Screen 3, IM, 1 μg, imaged 24 hours post injection) [fold] | protein expression relative to MD-1 (mice) | in vivo mRNA delivery of alkene walking tail derivatives (mice; IM, 0.1 μg, 6 hours) | fold drop in transfection versus AMG1541 (mice; IM, analogue without β-amino alcohol) [fold]
5 | 104.7 | 0.106 | 54.6 | CCCC/C=C\CCCCCC(=O)OCC(O)CN1CCN(CC(O)COC(=O)CCCCC/C=C\CCCC)CCN(CC(O)COC(=O)CCCCC/C=C\CCCC)CCN(CC(O)COC(=O)CCCCC/C=C\CCCC)CCN(CC(O)COC(=O)CCCCC/C=C\CCCC)CCN(CC(O)COC(=O)CCCCC/C=C\CCCC)CC1 (centres unmarked) [AMG1548] | – | superseded or matched MD-1 | – | –
6 | 100.4 | 0.234 | 56.9 | CCC/C=C\CCCCCCC(=O)OCC(O)CN1CCN(CC(O)COC(=O)CCCCCC/C=C\CCC)CCN(CC(O)COC(=O)CCCCCC/C=C\CCC)CCN(CC(O)COC(=O)CCCCCC/C=C\CCC)CCN(CC(O)COC(=O)CCCCCC/C=C\CCC)CCN(CC(O)COC(=O)CCCCCC/C=C\CCC)CC1 (centres unmarked) [AMG1549] | – | superseded or matched MD-1 | – | –
7 | 93 | 0.119 | 78.09 | CC/C=C\CCCCCCCC(=O)OCC(O)CN1CCN(CC(O)COC(=O)CCCCCCC/C=C\CC)CCN(CC(O)COC(=O)CCCCCCC/C=C\CC)CCN(CC(O)COC(=O)CCCCCCC/C=C\CC)CCN(CC(O)COC(=O)CCCCCCC/C=C\CC)CCN(CC(O)COC(=O)CCCCCCC/C=C\CC)CC1 (centres unmarked) [AMG1550] | – | superseded or matched MD-1 | – | –
8 | 77 | 0.145 | 67.41 | C/C=C\CCCCCCCCC(=O)OCC(O)CN1CCN(CC(O)COC(=O)CCCCCCCC/C=C\C)CCN(CC(O)COC(=O)CCCCCCCC/C=C\C)CCN(CC(O)COC(=O)CCCCCCCC/C=C\C)CCN(CC(O)COC(=O)CCCCCCCC/C=C\C)CCN(CC(O)COC(=O)CCCCCCCC/C=C\C)CC1 (centres unmarked) [AMG1551] | – | – | loss in potency | –
9 | 94 | 0.09 | 89.0186 | CCCC/C=C\C/C=C\CCC(=O)OCC(O)CN1CCN(CC(O)COC(=O)CC/C=C\C/C=C\CCCC)CCN(CC(O)COC(=O)CC/C=C\C/C=C\CCCC)CCN(CC(O)COC(=O)CC/C=C\C/C=C\CCCC)CCN(CC(O)COC(=O)CC/C=C\C/C=C\CCCC)CCN(CC(O)COC(=O)CC/C=C\C/C=C\CCCC)CC1 (centres unmarked) [AMG1553] | – | superseded or matched MD-1 | – | –
10 | 105 | 0.1 | 91.711 | CCC/C=C\C/C=C\CCCC(=O)OCC(O)CN1CCN(CC(O)COC(=O)CCC/C=C\C/C=C\CCC)CCN(CC(O)COC(=O)CCC/C=C\C/C=C\CCC)CCN(CC(O)COC(=O)CCC/C=C\C/C=C\CCC)CCN(CC(O)COC(=O)CCC/C=C\C/C=C\CCC)CCN(CC(O)COC(=O)CCC/C=C\C/C=C\CCC)CC1 (centres unmarked) [AMG1554] | – | superseded or matched MD-1 | – | –
